Several values for one entry are separate records, joined by “and”; a condition that tells them apart may be missing. Identical values can stand only once.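 Tested at 5 concentrations; 48 h exposure; 96-well plates; endpoints linearly interpolated, else capped at highest concentration. At the GI50, growth is halved. At the TGI there is no net growth.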
Columns and labels:
Experiment in all cases: growth of human tumour cells (NCI), 48 h
[1] = system: MALME-3M melanoma
[2] = system: UO-31 renal
[3] = system: EKVX NSCLC
[4] = system: SF-268 CNS
[5] = system: HOP-92 NSCLC
[6] = system: IGROV1 ovarian
[7] = system: UACC-62 melanoma
[8] = system: TK-10 renal
[9] = system: MDA-MB-435
[10] = system: SF-539 CNS

Row | Compound | GI50 [1] [µM] | TGI [1] | GI50 [2] [µM] | TGI [2] | GI50 [3] [µM] | TGI [3] | GI50 [4] [µM] | TGI [4] | GI50 [5] [µM] | TGI [5] [µM] | GI50 [6] [µM] | TGI [6] | GI50 [7] [µM] | TGI [7] | GI50 [8] [µM] | TGI [8] | GI50 [9] [µM] | TGI [9] | GI50 [10] | TGI [10]
1 | O=C1CC/C(=C\COc2ccc3ccc(=O)oc3c2)O1 | 3.47 | 24.4 µM | 6.41 | 21.4 µM | 16.7 | 46.4 µM | 11.9 | 63 µM | 10.6 | 25.5 | 4.2 | 17.8 µM | 10.8 | 24.7 µM | 2.83 | 17.7 µM | 3.41 | 17.5 µM | 2.62 µM | 19.2 µM
2 | CCC(=O)c1ccc2c(c1)N(CCCN1CCN(CCO)CC1)c1ccccc1S2 | 8.85 | 26.1 µM | 7.82 | 21.6 µM | 13.1 | 28.1 µM | 15.4 | 29.5 µM | 3.43 | 15.2 | 12.4 | 29.1 µM | 2.2 | 4.73 µM | 13.9 | 27.5 µM | 3.24 | 12.3 µM | 12.2 µM | 27 µM
3 | COc1ccc(-c2cc(-c3nnc(SCC(=O)Nc4ccc(C(C)=O)cc4)o3)c3ccccc3n2)cc1 | 10.6 | 91.8 µM | > 100 | > 100 µM | > 100 | > 100 µM | 29.1 | > 100 µM | 9.1 | 37.5 | 20.2 | > 100 µM | 27.1 | > 100 µM | 28.7 | 78.6 µM | > 100 | > 100 µM | 33.9 µM | > 100 µM
4 | Cc1ccccc1C(C(=O)NC1CCCCC1)N(C(=O)Cn1ccnc1C)c1cccc(F)c1 (stereo unspecified) | > 52.8 | > 100 µM | > 51.6 | > 100 µM | > 100 | > 100 µM | > 66.5 | > 100 µM | 20 | > 100 | > 77 | > 100 µM | 59.3 | > 100 µM | 27.5 | 71.7 µM | > 100 | > 100 µM | 33.1 µM | > 66.5 µM
5 | Cc1cc(NC(=O)NC(=O)c2ccccc2NC(=O)CN)ccc1Oc1ncc(Br)cn1 | < 0.01 | 75 µM and 89.6 µM | 2.1 | 50.1 µM and > 100 µM |  | 39.1 µM and 49.2 µM | 0.608 | 43.2 µM and 29.5 µM |  | 32.7 | 0.284 | 27.7 µM and 49.5 µM | 0.112 | 19.8 µM and 15.4 µM | 3.73 | 36.4 µM and 25.3 µM | 0.0399 | 1.78 µM and 0.494 µM | 0.0762 µM and 0.0509 µM | 0.351 µM and 0.481 µM
6 | CC1(C)Cc2c(Br)c(Br)c(Br)c(OCC(O)CN3CCOCC3)c2O1 (stereo unspecified) | 15 | 32.7 µM | 12.8 | 27.4 µM | 7.72 | 20.5 µM | 12.1 | 27.8 µM | 3.76 | 21.5 | 14.1 | 28.4 µM | 13.8 | 27.5 µM | 14.5 | 30 µM | 15.5 | 31.9 µM | 12.5 µM | 26 µM
7 | COC(=O)[C@@H]1CCCN1C(=O)[C@H]1CCCN1C(=O)[C@@H](Cc1c[nH]c2ccccc12)NC(=S)Nc1cc(C(F)(F)F)cc(C(F)(F)F)c1 | 2.65 | 7.24 µM | 3.23 | 11.6 µM |  |  | 3.51 | 12.1 µM | 1.12 | 3.43 | 2.59 | 6.73 µM | 2.38 | 6.29 µM | 2.58 | 6.62 µM | 2.9 | 9.07 µM | 3.83 µM | 14.3 µM
8 | COc1ccc2[nH]cc(-c3nc(-c4c[nH]c5ccncc45)cs3)c2c1 | 2 | 3.58 µM | 1.75 | 3.46 µM | 1.99 | 4.88 µM | 2.61 | 6.97 µM | 1.79 | 3.75 | 1.93 | 3.9 µM | 1.78 | 3.35 µM | 2.59 | 4.64 µM | 1.68 | 3.13 µM | 1.64 µM | 3.09 µM
9 | O=C1C=CC(=O)c2c1ncc1c2nc2sccn21 | 12.7 | 26.5 µM | 13.8 | 72.3 µM | 20.2 | 44.7 µM | 18.5 | > 100 µM | 14.9 | 31.1 | 22.7 | 56.6 µM | 21.8 | 45.2 µM | 18.3 | 33.5 µM | 16.3 | 39.2 µM | 12.4 µM | 42.4 µM
